Our source for the functional comment, IC50 and Ki values is patent US8609680B2, “2,3-dihydro-1H-inden-1-yl-2,7-diazaspiro[3.5] nonane derivatives” (Pfizer Inc., priority 2010, dated 2013).

A word on the IC50: it is the concentration at which inhibition is half-maximal. Low readings indicate inhibition by little substance, high ones a need for much substance. One may read the Ki as the dissociation constant of the complex between target and ligand, obtained from inhibition or displacement. Read a high Ki as lower affinity.

Assay [1] deals with T1, human GHSR1a (Homo sapiens, UniProt Q92847).
T1 construct: expressed in transfected cells; host or cells: HEK293 Tetracycline-Inducible cell line, used as membranes
The experiment in a line: Human Ghrelin Functional Assay (DELFIA GTP-binding assay). Type of assay: biochemical. As to conditions: GTP-Europium exchange, human GHSR1a membranes, with and without ghrelin at EC80. On the procedure:
Human Ghrelin Functional Assay
To measure the ability of test compounds in the present invention to modulate the activity of human GHSR1a (agonize, antagonize, partially agonize, inversely agonize), a DELFIA GTP-binding assay (Perkin Elmer, AD0260 and AD0261) is performed. The assay monitors the ligand-dependent exchange of GDP for GTP. GPCR activation results in an increase in fluorescence as receptor-bound GDP is replaced by Europium-labeled GTP.
Ghrelin functional assays are performed in a final volume of 39.5 μl containing 720 ng human GHSR1a (HEK293 Tetracycline-Inducible cell line expressing the human growth secretagogue receptor la, prepared as membranes), 9 nM GTP-Europium and varying concentrations of test compound or vehicle. To test for receptor antagonism, membranes are incubated in the presence of agonist ghrelin (Anaspec, 24158) at the EC80 concentration, plus test compound or vehicle.
Briefly, test compounds are prepared at room temperature in 384-well plates (Matrix, 4340). […] Samples are then transferred as 6 μl to 384-well filter plates (Pall, 5071) containing 30 μl of 24 μg/ml hGHSR1a membrane and 0.35 mg/ml saponin (Perkin Elmer, AD0261) in basal buffer.
The mixture is incubated 24 minutes at room temperature with gentle shaking, followed by the addition of 3.5 μl of 100 nM GTP-Europium in 50 mM HEPES, pH 7.4. Samples are shielded from light and incubated for 90 minutes further at room temperature with gentle shaking. The reactions are suctioned dry with vacuum, washed three times with 75 μl ice cold 1× GTP Wash Solution (Perkin Elmer, AD0261), and immediately read on the Envision 2101 Multilabel Reader (Perkin Elmer) using excitation filter 320 nm and emission filter 615 nm.

Assay [2] addresses T1, human GHSR1a. The experiment in a line: Human Ghrelin SPA Binding Assay. An excerpt: The SPA format was utilized for high throughput screening of test compounds and filter binding served for more comprehensive binding characterization.
Human Ghrelin SPA Binding Assay

Setting [3] is: SPA format, [125I] ghrelin displacement, human GHSR1a membranes, Ki=IC50/(1+[ligand]/Kd).

Like-named read-outs stand apart in the source and are kept apart here.

T1 sequence (Q92847 whole entry): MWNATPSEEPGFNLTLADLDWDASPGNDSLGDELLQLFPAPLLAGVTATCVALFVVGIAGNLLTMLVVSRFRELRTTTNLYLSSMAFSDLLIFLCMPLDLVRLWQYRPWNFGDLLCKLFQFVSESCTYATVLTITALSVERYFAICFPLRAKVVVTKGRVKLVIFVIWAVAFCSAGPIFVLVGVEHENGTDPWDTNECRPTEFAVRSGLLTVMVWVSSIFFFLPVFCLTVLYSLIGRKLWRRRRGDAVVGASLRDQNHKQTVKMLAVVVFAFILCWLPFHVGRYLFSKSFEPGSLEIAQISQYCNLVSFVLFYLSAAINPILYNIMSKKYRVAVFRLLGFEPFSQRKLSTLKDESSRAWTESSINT

With `Cc1ccn2cc(CC(=O)N3CCC4(CC3)CN([C@@H]3CCc5cc(-c6cc(C#N)ncn6)ccc53)C4)nc2c1` [Example 3AP], the functional comment result at human GHSR1a [1] is listed as “inverse agonist”. Besides, on human GHSR1a [2], the IC50 is 0.0272 µM and the affinity corresponds to a Ki of 0.0244 µM.

For `Cc1cc(-c2ccc3c(c2)CC[C@H]3N2CC3(CCN(C(=O)Cc4cn5c(C)c(C)sc5n4)CC3)C2)ncn1` [Example 3AR], the functional comment result on human GHSR1a [1] is recorded as “inverse agonist”. At human GHSR1a [2], this molecule showed an IC50 of 0.0339 µM and an inhibition constant (Ki) of 0.0303 µM.

On to `Cc1cc(-c2ccc3c(c2)CC[C@H]3N2CC3(CCN(C(=O)Cc4ccc5c(n4)OCCO5)CC3)C2)ncn1` [Example 3D], for which the functional comment result at human GHSR1a [1] was “inverse agonist”. For the same molecule, at human GHSR1a [2], the half-inhibitory concentration (IC50) worked out at 0.0102 µM and the Ki came to 0.00891 µM.

Regarding `Cc1nccc(-c2ccc3c(c2)CC[C@H]3N2CC3(CCN(C(=O)Cc4ccc5c(n4)OCCO5)CC3)C2)n1` [Example 3E, 6-(2-{2-[(1R)-5-(2-methylpyrimidin-4-yl)-2,3-dihydro-1H-inden-1-yl]-2,7-diazaspiro[3.5]non-7-yl}-2-oxoethyl)-2,3-dihydro[1,4]dioxino[2,3-b]pyridine], at human GHSR1a [1], the functional comment result was “inverse agonist”. Further, on human GHSR1a [2], the IC50 was found to be 0.0207 µM and the affinity, expressed as Ki, was 0.0185 µM.

Take `Cc1cc(-c2ccc3c(c2)CC[C@H]3N2CC3(CCN(C(=O)Cc4cn5cc(C)sc5n4)CC3)C2)ncn1` [Example 3F]: the functional comment result on human GHSR1a [1] is given as “inverse agonist”. In addition, at human GHSR1a [2], the inhibitory constant (Ki) amounted to 0.00437 µM. Further, the IC50 at human GHSR1a [2] (SPA format, [125I] ghrelin displacement, human GHSR1a membranes from HEK293 Tetracycline-Inducible cell line) is 0.00502 µM.

In the case of `COc1ccc(CC(=O)N2CCC3(CC2)CN([C@@H]2CCc4cc(-c5ncccn5)ccc42)C3)nc1` [Example 3G], the functional comment result at human GHSR1a [1] is “inverse agonist”. This molecule also came in with an IC50 at human GHSR1a [2] of 0.0212 µM.

As to `COc1ccc(CC(=O)N2CCC3(CC2)CN([C@@H]2CCc4cc(-c5ncc(C)cn5)ccc42)C3)nc1` [Example 3H], the functional comment entry on human GHSR1a [1] is given as “inverse agonist”. Besides, the concentration for half-maximal inhibition (IC50) at human GHSR1a [2] came out at 0.00951 µM. On human GHSR1a [2] (setting [3]), this molecule displayed a Ki of 0.00917 µM.

As for `Cc1ccc(CC(=O)N2CCC3(CC2)CN([C@@H]2CCc4cc(-c5ncccn5)ccc42)C3)nc1` [Example 3I], on human GHSR1a [1], the functional comment entry is “inverse agonist”. The molecule also had an IC50 on human GHSR1a [2] of 0.031 µM. The Ki at human GHSR1a [2] (setting [3]) stood at 0.0278 µM.

As for `Cc1cc(-c2ccc3c(c2)CC[C@H]3N2CC3(CCN(C(=O)Cc4cn5ccccc5n4)CC3)C2)ncn1` [Example 3L], at human GHSR1a [1], the functional comment entry was “inverse agonist”. For the same molecule, at human GHSR1a [2], the 50% inhibitory concentration (IC50) came to 0.023 µM and the affinity, expressed as Ki, was 0.0202 µM.

Turning to `COc1ccc(CC(=O)N2CCC3(CC2)CN([C@@H]2CCc4cc(-c5ccn(C)n5)ccc42)C3)nc1` [Example 3N], on human GHSR1a [1], the functional comment result is given as “inverse agonist”. At human GHSR1a [2], this molecule returned an IC50 of 0.0826 µM and a Ki of 0.0713 µM.

For `COc1ccc(CC(=O)N2CCC3(CC2)CN([C@@H]2CCc4cc(-c5nccc(C)n5)ccc42)C3)nc1` [Example 3S], on human GHSR1a [1], the functional comment entry was “inverse agonist”. At human GHSR1a [2], this molecule yielded an IC50 of 0.0178 µM and a Ki of 0.0153 µM.

For `Cc1ccnc(-c2ccc3c(c2)CC[C@H]3N2CC3(CCN(C(=O)Cc4ccc5c(n4)OCCO5)CC3)C2)n1` [Example 3U], the functional comment entry on human GHSR1a [1] is reported as “inverse agonist”. Besides, at human GHSR1a [2], the IC50 worked out at 0.00808 µM and the affinity corresponds to a Ki of 0.0069 µM.

In the case of `CCc1cnc(-c2ccc3c(c2)CC[C@H]3N2CC3(CCN(C(=O)Cc4ccc(OC)cc4)CC3)C2)nc1` [Example 3W], the functional comment entry on human GHSR1a [1] is recorded as “inverse agonist”. For the same molecule, at human GHSR1a [2], the IC50 was 0.0172 µM and affinity was put at a Ki of 0.0148 µM.

Consider `Cc1ccn2cc(CC(=O)N3CCC4(CC3)CN([C@@H]3CCc5cc(-c6ncccn6)ccc53)C4)nc2c1` [Example 3X], for which the functional comment result at human GHSR1a [1] is given as “inverse agonist”. In addition, on human GHSR1a [2], the IC50 turned out to be 0.0366 µM and the Ki amounted to 0.0316 µM.

In the case of `Cc1cc(-c2ccc3c(c2)CC[C@H]3N2CC3(CCN(C(=O)Cc4cn5nc(C)sc5n4)CC3)C2)ncn1` [Example 3Z, 7-[(2-methylimidazo[2,1-b][1,3,4]thiadiazol-6-yl)acetyl]-2-[(1R)-5-(6-methylpyrimidin-4-yl)-2,3-dihydro-1H-inden-1-yl]-2,7-diazaspiro[3.5]nonane], the functional comment entry at human GHSR1a [1] is given as “inverse agonist”. At human GHSR1a [2], this molecule displayed an IC50 of 0.00678 µM and a Ki of 0.00607 µM.

As to `CCc1ccc(CC(=O)N2CCC3(CC2)CN([C@@H]2CCc4cc(-c5ncccn5)ccc42)C3)nc1` [Example 5B], the functional comment result at human GHSR1a [1] is given as “inverse agonist”. At human GHSR1a [2], this molecule came in with an IC50 of 0.0115 µM and a Ki of 0.0104 µM.

For the molecule `Cc1ccc(CC(=O)N2CCC3(CC2)CN([C@@H]2CCc4cc(-n5nccn5)ccc42)C3)nc1` [Example 5C], on human GHSR1a [1], the functional comment entry is “inverse agonist”. Moreover, the Ki at human GHSR1a [2] (setting [3]) was determined as 0.0105 µM.

For `COc1ccc(CC(=O)N2CCC3(CC2)CN([C@@H]2CCc4cc(-c5cc(C)nc(C)n5)ccc42)C3)nc1` [Example 5G], the functional comment result on human GHSR1a [1] is on record as “inverse agonist”. On human GHSR1a [2], this molecule had an IC50 of 0.0399 µM and a Ki of 0.033 µM.

With `Cc1ccn2cc(CC(=O)N3CCC4(CC3)CN([C@@H]3CCc5cc(-n6nccn6)ccc53)C4)nc2c1` [Example 6C], at human GHSR1a [1], the functional comment result is reported as “inverse agonist”. For the same molecule, on human GHSR1a [2], the IC50 was 0.0372 µM and the Ki amounted to 0.0324 µM.

`COc1ccc(CC(=O)N2CCC3(CC2)CN([C@@H]2CCc4cc(-n5nccn5)ccc42)C3)nc1` [Example 6D]: the functional comment result on human GHSR1a [1] is reported as “inverse agonist”. This molecule had an IC50 on human GHSR1a [2] of 0.00344 µM. Moreover, the Ki on human GHSR1a [2] (setting [3]) is 0.00332 µM.

Turning to `COc1ccc(CC(=O)N2CCC3(CC2)CN([C@@H]2CCc4cc(-n5nccn5)ccc42)C3)cc1` [Example 6E], the functional comment entry on human GHSR1a [1] is “inverse agonist”. At human GHSR1a [2], this molecule displayed an IC50 of 0.00377 µM and a Ki of 0.00309 µM.

Turning to `Cc1cn2cc(CC(=O)N3CCC4(CC3)CN([C@@H]3CCc5cc(-n6nccn6)ccc53)C4)nc2s1` [Example 6F], the functional comment result at human GHSR1a [1] was “inverse agonist”. Further, at human GHSR1a [2], the IC50 was found to be 0.00608 µM and the affinity, expressed as Ki, was 0.00518 µM.

Take `COc1ccc(CC(=O)N2CCC3(CC2)CN([C@@H]2CCc4cc(-n5nccn5)ccc42)C3)c(NC(C)=O)c1` [Example 6H]: the functional comment entry at human GHSR1a [1] is “inverse agonist”. On human GHSR1a [2], this molecule yielded an IC50 of 0.0217 µM and a Ki of 0.0194 µM.

Take `Cc1ccn2cc(CC(=O)N3CCC4(CC3)CN([C@@H]3CCc5cc(-c6ccc(C(N)=O)nc6)ccc53)C4)nc2c1` [Example 9F]: the functional comment result at human GHSR1a [1] is recorded as “inverse agonist”. On human GHSR1a [2], this molecule had an IC50 of 0.0228 µM and a Ki of 0.0202 µM.

Take `NC(=O)c1ccc(-c2ccc3c(c2)CC[C@H]3N2CC3(CCN(C(=O)Cc4ccc(C5CC5)cn4)CC3)C2)cn1` [Example 10E]: the functional comment result at human GHSR1a [1] is reported as “inverse agonist”. On human GHSR1a [2], this molecule had a half-maximal inhibitory concentration (IC50) of 0.00998 µM and a Ki of 0.00886 µM.

As for `Cc1nn2cc(CC(=O)N3CCC4(CC3)CN([C@@H]3CCc5cc(-c6ccc(C(N)=O)nc6)ccc53)C4)nc2s1` [Example 10F], the functional comment result at human GHSR1a [1] is “inverse agonist”. At human GHSR1a [2], this molecule registered an IC50 of 0.0158 µM and a Ki of 0.0142 µM.

Consider `Cc1ccn2cc(CC(=O)N3CCC4(CC3)CN([C@@H]3CCc5cc(-c6cc(C(N)=O)ncn6)ccc53)C4)nc2c1` [Example 10G], for which the functional comment result at human GHSR1a [1] is “inverse agonist”. On human GHSR1a [2], this molecule had an IC50 of 0.0601 µM and an inhibitory constant (Ki) of 0.0538 µM.
